How the values were obtained:
TSP-1 binding to CD36 = assay: Co-immunoprecipitation TSP-1:CD36 in HUVECs; type: cell-based, human; conditions: 100 μM, 24 h
Procedure: Figure 3 Anti-angiogenic properties of TAX2 are mediated by TSP-1 binding to CD36 A. Expression of CD36 in HUVECs was assessed by immunoblotting (left panel) and immunofluorescence staining (right panel, red). Nuclei were counterstained with DAPI (blue). B. HUVECs were incubated with 100 μM cyclic TAX2 or in control conditions for 24 h. Then, CD36-containing complexes were co-immunoprecipitated from whole cell extracts (non-specific IgGs were used as a negative control for immunoprecipitation). Immunocomplexes were submitted to SDS-PAGE and immunoblotted (IB) by using specific antibodies for TSP-1 and CD36. The presence of TSP-1 in immunocomplexes was quantified by densitometric analysis relative to immunoprecipitated CD36. C. VEGFR2 phosphorylation induced by VEGF in the presence of TAX2. After overnight serum starvation, HUVECs were pre-treated with 100 μM TAX2 or control for 12 h, then incubated with 30 ng/mL VEGF for 5 min. […] Data are expressed as the mean ± SE (n = 3; *p < 0.05, ANOVA). […] Quantification of total tube-like network length was realized using ImageJ software E. Branching points F. and nodal structures G. were numbered using the S.CORE web-based system. Data are expressed as the mean ± SE (n = 3; *p < 0.05, ANOVA). […]

HUVECs = assay: Wound-healing migration assay; type: cell-based, human; conditions: 100 μM, 9 h, after mitomycin C, mean of 3 in quadruplicate
Procedure: Figure 2 TAX2 peptide impairs endothelial cell migration and inhibits angiogenesis in vitro and ex vivo A. HUVECs were treated with TAX2 (100 μM) or scrambled peptide (Ctrl, 100 μM). CD47 was immunoprecipitated from total protein lysates using anti-CD47 (clone B6H12) and non-specific IgGs were used as a negative control. Immunocomplexes were then submitted to SDS-PAGE and immunoblotted (IB) using specific TSP-1 and CD47 antibodies. Histogram represents the quantification of co-immunoprecipitated TSP-1 relative to immunoprecipitated CD47. Results are expressed as percentage compared to control (n = 3 separate experiments, t test). B. HUVECs (1 × 10^5 per well) were grown at confluence and then cell proliferation was inhibited by incubating with 10 μg/mL mitomycin C for 2 h. […] Graph represents the quantification of the wounded area. […] Hoechst-stained migrating cells attached on outside surface of the top chamber were photographed (20× objective) and counted. Results are expressed as percentage of migrated cells as compared to control. […] After 8 h incubation, HUVEC tube-like formation was observed on an inverted microscope (40×) and quantification of network total length was done using ImageJ software. […] Data are expressed as the mean ± SE from at least 3 independent experiments, each performed in triplicate. […] The transcriptional level of TSP-1 was assessed by RT-PCR and normalized to β-actin. […]

Question: Which results are given for “CEVSQLLKGDAC (disulfide) [TAX2, CD47-derived cyclic disulfide dodecapeptide …]”?
Answer: increase of TSP-1 co-immunoprecipitated with CD36 (TSP-1 binding to CD36): 3 fold; endothelial cell migration rate (wound healing) (HUVECs): reduced migration rate

Reference: PMC4627230, “Identification of TAX2 peptide as a new unpredicted anti-cancer agent” (Oncotarget, 2015)
